Data as given in patent publication US12661410B2, “Compounds for targeted degradation of RET” (C4 Therapeutics, Inc., priority 2020, dated 2026).
Changes are numbered by the printed parent chain. Like-named read-outs stand apart in the source and are kept apart here.

Columns and labels:
[1] = molecular target: T1, RET(KD: 658-1114 G810R) (Homo sapiens, UniProt P07949, G810R); test: HiBiT-Degradation, RET G810R degradation assay (Nano-Glo HiBiT Lytic), 293T.165 cells; format: cell-based; conditions: for Emax / DC50: 6.0 hours
T1 construct: 658-1114; expressed in transfected cells; host or cells: 293T.165 (293T cells, generated in-house)
T1 sequence (P07949 658-1114 G810R): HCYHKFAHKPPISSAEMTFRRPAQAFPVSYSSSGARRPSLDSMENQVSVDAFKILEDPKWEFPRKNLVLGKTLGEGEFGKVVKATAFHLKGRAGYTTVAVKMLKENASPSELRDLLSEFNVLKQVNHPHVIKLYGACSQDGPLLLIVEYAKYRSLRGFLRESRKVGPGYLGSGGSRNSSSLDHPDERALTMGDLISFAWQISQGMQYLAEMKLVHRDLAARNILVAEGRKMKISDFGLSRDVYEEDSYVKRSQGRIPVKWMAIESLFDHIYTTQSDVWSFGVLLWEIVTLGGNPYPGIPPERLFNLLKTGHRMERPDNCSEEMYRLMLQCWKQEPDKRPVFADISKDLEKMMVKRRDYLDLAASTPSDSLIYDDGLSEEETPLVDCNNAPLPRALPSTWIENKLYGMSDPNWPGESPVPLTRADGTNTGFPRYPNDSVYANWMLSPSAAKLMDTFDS
Summary of the method: (§1)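 Luminescence readout of HiBiT-tagged RET kinase domain remaining after 6 h compound exposure. Cells: 293T.144 (wild type) or 293T.165 (G810R), 11 half-log doses up to 10 μM, duplicates. DC50 and Emax as % remaining protein taken from curve fits.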

[2] = molecular target: T2, RET (658-1114) (Homo sapiens, UniProt P07949); test: HiBiT-Degradation, RET wild-type degradation assay (Nano-Glo HiBiT Lytic), 293T.144 cells; format: cell-based; conditions: for Emax / DC50: 6.0 hours
T2 construct: 658-1114; expressed in transfected cells; host or cells: 293T.144 (293T cells, generated in-house)
T2 sequence (P07949 658-1114): T1 sequence (P07949 658-1114 G810R) with R153G
Summary of the method: as §1

[3] = % remaining protein, read-out: 293T.165 RET(KD: 658-1114 G810R) 6.0 hours (Emax)
[4] = half-maximal degradation concentration, read-out: 293T.165 RET(KD: 658-1114 G810R) 6.0 hours (DC50)
[5] = % remaining protein, read-out: 293T.144 RET (658-1114) 6.0 hours (Emax)
[6] = half-maximal degradation concentration, read-out: 293T.144 RET (658-1114) 6.0 hours (DC50)
[7] = HiBiT-Degradation, read-out: 293T.165 RET(KD: 658-1114 G810R) 6.0 hours (DC50)
[8] = HiBiT-Degradation, read-out: 293T.144 RET (658-1114) 6.0 hours (DC50)
[9] = HiBiT-Degradation, read-out: 293T.144 RET (658-1114) 6.0 hours (Emax)

Row | Structure (SMILES) | 293T.165 RET(KD: 658-1114 G810R) 6.0 hours (IP) [nM] [1] | 293T.144 RET (658-1114) 6.0 hours (IP) [nM] [2] | Emax [2, 5] | DC50 [2, 6] | HiBiT-Degradation 293T.165 RET(KD: 658-1114 G810R) 6.0 hours (IP) [nM] ([1]; RET G810R) | DC50 ([1]; RET G810R, read-out: HiBiT-Degradation 293T.165 RET(KD: 658-1114 G810R) 6.0 hours (DC50)) | Emax ([1]; RET G810R, read-out: HiBiT-Degradation 293T.165 RET(KD: 658-1114 G810R) 6.0 hours (Emax)) | HiBiT-Degradation 293T.144 RET (658-1114) 6.0 hours (IP) [nM] ([2]; RET wild-type) | DC50 ([2]; RET wild-type, read-out: HiBiT-Degradation 293T.144 RET (658-1114) 6.0 hours (DC50)) | Emax ([2]; RET wild-type, read-out: HiBiT-Degradation 293T.144 RET (658-1114) 6.0 hours (Emax)) | Emax [1, 3] | DC50 [1, 4] | 293T.165 RET(KD: 658-1114 G810R) 6.0 hours (Emax) ([1]; HiBiT-Degradation) | 293T.165 RET(KD: 658-1114 G810R) 6.0 hours (IP) [nM] ([1]; HiBiT-Degradation) | DC50 [1, 7] | 293T.144 RET (658-1114) 6.0 hours (IP) [nM] ([2]; HiBiT-Degradation) | DC50 [2, 8] | Emax [2, 9]
1 | N#Cc1cnn2cc(-c3cnn([C@H]4CC[C@H](N5CCN(c6ccc(N[C@H]7CCC(=O)NC7=O)cc6F)CC5)CC4)c3)nc(-c3ccc(N4CC5COCC(C4)N5Cc4ccccn4)nc3)c12 (single isomer, unassigned) [Compound 155] | ++++ (<50 nM = ++++) | ++++ (<50 nM = ++++) | < 30% | < 0.05 µM | – | – | – | – | – | – | < 30% | < 0.05 µM | – | – | – | – | – | –
2 | N#Cc1cnn2cc(-c3ccc(N4CCN(C(=O)CN5CCC(c6ccc(NC7CCC(=O)NC7=O)cc6F)CC5)CC4)cc3)nc(-c3ccc(N4CC5CC(C4)N5Cc4ccccc4)nc3)c12 (stereo not drawn) [Compound 54, 4-[6-(6-benzyl-3,6-diazabicyclo[3.1.1]heptan-3-yl)-3-pyridyl]-6-[4-[4-[2-[4-[4-[(2,6-dioxo-3-piperidyl)amino]-2-fluoro-phenyl]-1-piperidyl]acetyl]piperazin-1-yl]phenyl]pyrazolo[1,5-a]pyrazine-3-carbonitrile] | – | – | – | – | – | – | – | – | – | – | < 30% | < 0.1 µM | ++++ (< 30% = ++++) | ++++ (< 50 nM = ++++) | < 0.1 µM | ++++ (< 50 nM = ++++) | < 0.05 µM | < 30%
3 | CCC1(C(=O)NC(C)C)CCN(c2ccc(-c3nc(-c4cnn(C5CCN(C(=O)CN6C7CCC6CC(c6ccc(NC8CCC(=O)NC8=O)cc6)C7)CC5)c4)cn4ncc(C#N)c34)cn2)CC1 (stereo not drawn) [Compound 9, 1-[5-[3-cyano-6-[1-[1-[2-[3-[4-[(2,6-dioxo-3-piperidyl)amino]phenyl]-8-azabicyclo[3.2.1]octan-8-yl]acetyl]-4-piperidyl]pyrazol-4-yl]pyrazolo[1,5-a]pyrazin-4-yl]-2-pyridyl]-4-ethyl-N-isopropyl-piperidine-4-carboxamide] | – | – | – | – | – | – | – | – | – | – | < 30% | < 0.1 µM | ++++ (< 30% = ++++) | ++++ (< 50 nM = ++++) | < 0.1 µM | ++++ (< 50 nM = ++++) | < 0.05 µM | < 30%
4 | CCC1(C(=O)NC(C)C)CCN(c2ccc(-c3nc(-c4cnn([C@H]5CC[C@H](N6CCC(c7ccc(N[C@@H]8CCC(=O)NC8=O)cc7F)CC6)CC5)c4)cn4ncc(C#N)c34)cn2)CC1 (single isomer, unassigned) [Compound 124] | ++++ (<50 nM = ++++) | ++++ (<50 nM = ++++) | < 30% | < 0.05 µM | – | – | – | – | – | – | < 30% | < 0.05 µM | – | – | – | – | – | –
5 | COc1cc(N2CCN([C@H]3CC[C@H](n4cc(-c5cn6ncc(C#N)c6c(-c6ccc(N7CC8COCC(C7)N8C(=O)OC(C)(C)C)nc6)n5)cn4)CC3)CC2)c(F)cc1NC1CCC(=O)NC1=O (relative stereo) [Compound 163, tert-butyl 7-[5-[3-cyano-6-[1-[4-[4-[4-[(2,6-dioxo-3-piperidyl)amino]-2-fluoro-5-methoxy-phenyl]piperazin-1-yl]cyclohexyl]pyrazol-4-yl]pyrazolo[1,5-a]pyrazin-4-yl]-2-pyridyl]-3-oxa-7,9-diazabicyclo[3.3.1]nonane-9-carboxylate] | ++++ (<50 nM = ++++) | ++++ (<50 nM = ++++) | < 30% | < 0.05 µM | – | – | – | – | – | – | < 30% | < 0.1 µM | – | – | – | – | – | –
6 | CCOc1ccc(CN2[C@@H]3COC[C@H]2CN(c2ccc(-c4nc(-c5cnn([C@H]6CC[C@H](N7CCN(c8c(F)cc(NC9CCC(=O)NC9=O)cc8F)CC7)CC6)c5)cn5ncc(C#N)c45)cn2)C3)cn1 (mixture of isomers) [Compound 212, 6-[1-[4-[4-[4-[(2,6-dioxo-3-piperidyl)amino]-2,6-difluoro-phenyl]piperazin-1-yl]cyclohexyl]pyrazol-4-yl]-4-[6-[rac-(1R,5S)-9-[(6-ethoxy-3-pyridyl)methyl]-3-oxa-7,9-diazabicyclo[3.3.1]nonan-7-yl]-3-pyridyl]pyrazolo[1,5-a]pyrazine-3-carbonitrile] | +++ (<100 nM = +++) | ++++ (<50 nM = ++++) | < 30% | < 0.05 µM | – | – | – | – | – | – | < 30% | < 0.1 µM | – | – | – | – | – | –

The next lines start with results.

Row | 293T.165 RET(KD: 658-1114 G810R) 6.0 hours (IP) [nM] [1] | 293T.144 RET (658-1114) 6.0 hours (IP) [nM] [2] | Emax [2, 5] | DC50 [2, 6] | HiBiT-Degradation 293T.165 RET(KD: 658-1114 G810R) 6.0 hours (IP) [nM] ([1]; RET G810R) | DC50 ([1]; RET G810R, read-out: HiBiT-Degradation 293T.165 RET(KD: 658-1114 G810R) 6.0 hours (DC50)) | Emax ([1]; RET G810R, read-out: HiBiT-Degradation 293T.165 RET(KD: 658-1114 G810R) 6.0 hours (Emax)) | HiBiT-Degradation 293T.144 RET (658-1114) 6.0 hours (IP) [nM] ([2]; RET wild-type) | DC50 ([2]; RET wild-type, read-out: HiBiT-Degradation 293T.144 RET (658-1114) 6.0 hours (DC50)) | Emax ([2]; RET wild-type, read-out: HiBiT-Degradation 293T.144 RET (658-1114) 6.0 hours (Emax)) | Structure (SMILES) | Emax [1, 3] | DC50 [1, 4] | 293T.165 RET(KD: 658-1114 G810R) 6.0 hours (Emax) ([1]; HiBiT-Degradation) | 293T.165 RET(KD: 658-1114 G810R) 6.0 hours (IP) [nM] ([1]; HiBiT-Degradation) | DC50 [1, 7] | 293T.144 RET (658-1114) 6.0 hours (IP) [nM] ([2]; HiBiT-Degradation) | DC50 [2, 8] | Emax [2, 9]
7 | ++++ (<50 nM = ++++) | ++++ (<50 nM = ++++) | < 30% | < 0.05 µM | – | – | – | – | – | – | N#Cc1cnn2cc(-c3cnn(C4CCN(C(=O)CC5(O)CCN(c6ccc(NC7CCC(=O)NC7=O)cc6F)CC5)CC4)c3)nc(-c3ccc(N4CCC(O)(Cc5ccccc5)CC4)nc3)c12 (stereo not drawn) [Compound 117, 4-[6-(4-benzyl-4-hydroxy-1-piperidyl)-3-pyridyl]-6-[1-[1-[2-[1-[4-[(2,6-dioxo-3-piperidyl)amino]-2-fluoro-phenyl]-4-hydroxy-4-piperidyl]acetyl]-4-piperidyl]pyrazol-4-yl]pyrazolo[1,5-a]pyrazine-3-carbonitrile] | < 30% | < 0.05 µM | – | – | – | – | – | –
8 | ++++ (<50 nM = ++++) | ++++ (<50 nM = ++++) | < 30% | < 0.05 µM | – | – | – | – | – | – | CC(C)CC(=O)N1CCN(c2ccc(-c3nc(-c4cnn(C5CCN(C(=O)CC6CCN(c7ccc(NC8CCC(=O)NC8=O)cc7F)CC6)CC5)c4)cn4ncc(C#N)c34)cn2)CC1 (stereo not drawn) [Compound 185, 6-(1-(1-(2-(1-(4-((2,6-dioxopiperidin-3-yl)amino)-2-fluorophenyl)piperidin-4-yl)acetyl)piperidin-4-yl)-1H-pyrazol-4-yl)-4-(6-(4-(3-methylbutanoyl)piperazin-1-yl)pyridin-3-yl)pyrazolo[1,5-a]pyrazine-3-carbonitrile] | < 50% | < 0.1 µM | – | – | – | – | – | –
9 | – | – | – | – | ++++ (< 50 nM = ++++) | < 0.1 µM | < 50% | ++++ (< 50 nM = ++++) | < 0.05 µM | < 30% | CN(Cc1ccc(-c2cn3ncc(C#N)c3c(-c3ccc(N4CCN(Cc5ccccn5)CC4)nc3)n2)cc1)C(=O)CN1CCC(c2ccc(NC3CCC(=O)NC3=O)cc2)CC1 (stereo not drawn) [Compound 83, N-[[4-[3-cyano-4-[6-[4-(2-pyridylmethyl)piperazin-1-yl]-3-pyridyl]pyrazolo[1,5-a]pyrazin-6-yl]phenyl]methyl]-2-[4-[4-[(2,6-dioxo-3-piperidyl)amino]phenyl]-1-piperidyl]-N-methyl-acetamide] | < 50% | < 0.1 µM | – | – | – | – | – | –
10 | ++++ (<50 nM = ++++) | ++++ (<50 nM = ++++) | < 30% | < 0.05 µM | – | – | – | – | – | – | CCC1(C(=O)NC2CCC2)CCN(c2ccc(-c3nc(-c4cnn([C@H]5CC[C@H](N6CCN(c7c(F)cc(N[C@@H]8CCC(=O)NC8=O)cc7F)CC6)CC5)c4)cn4ncc(C#N)c34)cn2)CC1 (single isomer, unassigned) [Compound 137] | < 30% | < 0.05 µM | – | – | – | – | – | –
